pIC50, pKi: −log10 of the molar value. “And” between values parts separate entries of the source, which are not always exact repeats. Equal values may be shown once. Read-outs that look alike come from different tables or passages of the source.
Experiments:
[1] = target: human α-thrombin (Homo sapiens, UniProt P00734); experiment: Protease inhibition, Ki for human α-thrombin (fluorogenic substrate Z-Gly-Gly-Arg-AMC); type: biochemical; conditions: for Human alpha thrombin inhibition, slope normalized to DMSO: replicates R1-R3
Protocol: (§1) The inhibition constants (Ki) of cyclic peptides were calculated by measuring thrombin inhibition in the presence of different concentrations of the cyclic peptides. […] Human α-thrombin (Molecular Innovations) and rat α-thrombin (Molecular Innovations) were used at final concentrations of 2 nM and 3 nM, respectively, and fluorogenic substrate (Z-Gly-Gly-Arg-AMC, Bachem) was used at a concentration of 50 μM. Enzymatic activity was determined by measuring fluorescent gain on a Tecan Infinite M200 Pro microplate reader (excitation: 360 nm, emission: 465 nm) or a PHERAstar FSX microplate reader (excitation: 380 nm, emission: 440 nm) for 30 min at 25 °C with a fluorescent readout every 3 min. The two instruments were controlled with Tecan Infinite M200 Pro instrument software (iControl, version 1.12) and PHERAstar FSX software (version 5.70, edition 8), respectively. Protease inhibition was calculated by comparing the enzymatic activity to a control without cyclic peptide.
(§2) Half maximal inhibitory concentration (IC50) values were determined using a four-parameter logistic regression model in GraphPad Prism 9 to fit sigmoidal curves to the acquired data points according to equation (2) below.2 y=b+a−b/1+10^(logIC50−x)p where a and b represent the measured inhibition maximum and minimum, respectively; x is the logarithm of peptide concentration; y is the thrombin activity compared to a control without the cyclic peptide; and p is the Hill coefficient.
(§3) Ki values were calculated using the IC50 and the Cheng–Prusoff equation (equation (3)).3 Ki=IC50/1+S0/Km where Km is the Michaelis–Menten constant of the enzyme for the substrate used in the assay, and [S]0 is the initial substrate concentration.

[2] = target: T1, rat α-thrombin (Rattus norvegicus, UniProt P18292); experiment: Protease inhibition, Ki for rat α-thrombin (fluorogenic substrate Z-Gly-Gly-Arg-AMC); type: biochemical; conditions: for Rat alpha thrombin inhibition, slope normalized to DMSO: replicates R1-R3
T1 construct: rat α-thrombin (Molecular Innovations) were used at final concentrations of 2 nM and 3 nM; purchased Molecular Innovations
Protocol: as §1, §2, §3

[3] = Passive artificial membrane permeability (PAMPA);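 as to Permeability% Average: top well sample relative to theoretical equilibrium sample by TIC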
[4] = peptide concentration 1.00E+02 uM
[5] = peptide concentration 1.19E-05 uM
[6] = peptide concentration 1.22E-02 uM
[7] = peptide concentration 1.25E+01 uM
[8] = peptide concentration 1.53E-03 uM
[9] = peptide concentration 1.56E+00 uM
[10] = peptide concentration 1.91E-04 uM
[11] = peptide concentration 1.95E-01 uM
[12] = peptide concentration 2.38E-05 uM
[13] = peptide concentration 2.44E-02 uM
[14] = peptide concentration 2.50E+01 uM
[15] = peptide concentration 3.05E-03 uM
[16] = peptide concentration 3.12E+00 uM
[17] = peptide concentration 3.81E-04 uM
[18] = peptide concentration 3.91E-01 uM
[19] = peptide concentration 4.77E-05 uM
[20] = peptide concentration 4.88E-02 uM
[21] = peptide concentration 5.00E+01 uM
[22] = peptide concentration 6.10E-03 uM
[23] = peptide concentration 6.25E+00 uM
[24] = peptide concentration 7.63E-04 uM
[25] = peptide concentration 7.81E-01 uM
[26] = peptide concentration 9.54E-05 uM
[27] = peptide concentration 9.77E-02 uM

With `O=C1C[C@H]2CCCN2C(=O)[C@H](Cc2ccccc2)NC(=O)[C@@H](NC(=O)c2ccc(Cl)s2)CC=CCCCN1` [compound 40] the pKi ([1]; average of R1-R3, read-out: Human alpha thrombin inhibition, Ki Average) was 5.42, the “Human alpha thrombin inhibition, slope normalized to DMSO” value [1, 4] was 24.9 and 25.0 and 20.5 and the “Human alpha thrombin inhibition, slope normalized to DMSO” value [1, 5] was 103.5 and 123.5 and 102.0. For the same compound, the “Human alpha thrombin inhibition, slope normalized to DMSO” value [1, 6] was 106.6 and 86.5 and 61.9, the “Human alpha thrombin inhibition, slope normalized to DMSO” value [1, 7] was 42.7 and 42.4 and 47.7 and the “Human alpha thrombin inhibition, slope normalized to DMSO” value [1, 8] was 60.4 and 64.9 and 105.1. For the same compound, the “Human alpha thrombin inhibition, slope normalized to DMSO” value [1, 9] was 69.9 and 77.6 and 68.9, the “Human alpha thrombin inhibition, slope normalized to DMSO” value [1, 10] was 105.9 and 100.1 and 65.2 and the “Human alpha thrombin inhibition, slope normalized to DMSO” value [1, 11] was 62.1 and 70.8 and 60.8. The “Human alpha thrombin inhibition, slope normalized to DMSO” value [1, 12] was 104.8 and 103.3 and 108.6, the “Human alpha thrombin inhibition, slope normalized to DMSO” value [1, 13] was 60.0 and 97.7 and 99.0 and the “Human alpha thrombin inhibition, slope normalized to DMSO” value [1, 14] was 33.7 and 37.4 and 37.6. The “Human alpha thrombin inhibition, slope normalized to DMSO” value [1, 15] was 90.7 and 95.7 and 101.5, the “Human alpha thrombin inhibition, slope normalized to DMSO” value [1, 16] was 61.5 and 74.1 and 46.2 and the “Human alpha thrombin inhibition, slope normalized to DMSO” value [1, 17] was 102.1 and 112.0 and 80.2. The “Human alpha thrombin inhibition, slope normalized to DMSO” value [1, 18] was 89.5 and 72.3, the “Human alpha thrombin inhibition, slope normalized to DMSO” value [1, 19] was 107.9 and 97.7 and 98.2 and the “Human alpha thrombin inhibition, slope normalized to DMSO” value [1, 20] was 58.9 and 84.7 and 96.6. The “Human alpha thrombin inhibition, slope normalized to DMSO” value [1, 21] was 23.5 and 29.5 (2×), the “Human alpha thrombin inhibition, slope normalized to DMSO” value [1, 22] was 76.0 and 102.5 and 99.2 and the “Human alpha thrombin inhibition, slope normalized to DMSO” value [1, 23] was 68.9 and 63.0 and 35.5. For the same compound, the “Human alpha thrombin inhibition, slope normalized to DMSO” value [1, 24] was 61.7 and 101.5 and 87.5, the “Human alpha thrombin inhibition, slope normalized to DMSO” value [1, 25] was 99.5 and 72.0 and 89.1 and the “Human alpha thrombin inhibition, slope normalized to DMSO” value [1, 26] was 106.0 and 103.1 and 118.2. For the same compound, the “Human alpha thrombin inhibition, slope normalized to DMSO” value [1, 27] was 62.3 and 75.9 and 55.0, the pKi ([2]; average of R1-R3, read-out: Rat alpha thrombin inhibition, Ki Average) was 5.83 and the “Rat alpha thrombin inhibition, slope normalized to DMSO” value [2, 4] was 8.5 and 10.5 and 9.7. The “Rat alpha thrombin inhibition, slope normalized to DMSO” value [2, 5] was 107.2 and 105.4 and 103.1, the “Rat alpha thrombin inhibition, slope normalized to DMSO” value [2, 6] was 105.9 and 100.2 and 97.5 and the “Rat alpha thrombin inhibition, slope normalized to DMSO” value [2, 7] was 28.9 and 25.6 and 11.1. For the same compound, the “Rat alpha thrombin inhibition, slope normalized to DMSO” value [2, 8] was 104.7 and 100.1 and 100.7, the “Rat alpha thrombin inhibition, slope normalized to DMSO” value [2, 9] was 60.2 and 60.7 and 63.3 and the “Rat alpha thrombin inhibition, slope normalized to DMSO” value [2, 10] was 101.0 and 93.6 and 80.4. For the same compound, the “Rat alpha thrombin inhibition, slope normalized to DMSO” value [2, 11] was 77.4 and 91.6 and 90.6, the “Rat alpha thrombin inhibition, slope normalized to DMSO” value [2, 12] was 99.9 and 95.1 and 101.1 and the “Rat alpha thrombin inhibition, slope normalized to DMSO” value [2, 13] was 106.7 and 94.6 and 110.9. For the same compound, the “Rat alpha thrombin inhibition, slope normalized to DMSO” value [2, 14] was 3.6 and 15.7 and 17.5, the “Rat alpha thrombin inhibition, slope normalized to DMSO” value [2, 15] was 104.4 and 102.5 and 99.7 and the “Rat alpha thrombin inhibition, slope normalized to DMSO” value [2, 16] was 54.9 and 53.5 and 52.8. The “Rat alpha thrombin inhibition, slope normalized to DMSO” value [2, 17] was 103.0 and 99.2 and 100.1, the “Rat alpha thrombin inhibition, slope normalized to DMSO” value [2, 18] was 58.4 and 57.7 and 87.4 and the “Rat alpha thrombin inhibition, slope normalized to DMSO” value [2, 19] was 109.2 and 85.2 and 99.3. The “Rat alpha thrombin inhibition, slope normalized to DMSO” value [2, 20] was 100.3 and 95.3 and 106.1, the “Rat alpha thrombin inhibition, slope normalized to DMSO” value [2, 21] was 16.0 and 15.4 and 14.7 and the “Rat alpha thrombin inhibition, slope normalized to DMSO” value [2, 22] was 102.6 and 94.5 and 101.1. The “Rat alpha thrombin inhibition, slope normalized to DMSO” value [2, 23] was 50.1 and 39.5 and 38.6, the “Rat alpha thrombin inhibition, slope normalized to DMSO” value [2, 24] was 102.8 and 105.9 and 89.3 and the “Rat alpha thrombin inhibition, slope normalized to DMSO” value [2, 25] was 79.5 and 71.2 and 76.6. The “Rat alpha thrombin inhibition, slope normalized to DMSO” value [2, 26] was 103.0 and 96.4 and 84.9, the “Rat alpha thrombin inhibition, slope normalized to DMSO” value [2, 27] was 100.1 and 93.3 and 83.6 and the pIC50 ([2]; single replicates R1-R3, read-out: Rat alpha thrombin inhibition, IC50) was 5.59 and 5.56 and 5.57. For the same compound, the Ki ([2]; single replicates R1-R3, read-out: Rat alpha thrombin inhibition, Ki) was 1.44 µM (2×) and 1.54 µM (2×) and 1.48 µM (2×), the “PAMPA permeability: % permeability” value ([3]; 50 μM, 12–18 h, acceptor concentration relative to equilibrium) was 42 ± 11% and the “Permeability% (single replicates R1–R3)” value ([3]; 50 μM, 13 h (Fig. 5d)) was 47.12% and 50.47% and 29.38%. For the same compound, the “Permeability% Average” value ([3]; 50 μM, 13 h (Fig. 5d)) was 42.3% and the Papp at 50 μM ([3]; PAMPA, pH 7.4) was 4.9 ×10⁻⁶ cm/s.

Source: publication PMC11062899, “De novo development of small cyclic peptides that are orally bioavailable” (Nature Chemical Biology, 2023)
